# Test results as given in patent US9243031B2, “Complex-forming compounds” (priority 2011, dated 2016).
# “Also recorded” adds a separate entry of the source. Read-outs that look alike come from different tables or passages of the source.
# How the values were obtained:
# [1] = Measurement of metal selectivity by HPLC-MS (ESI), ratio of metal adduct to Ca adduct signals; type: binding; conditions: for binding of Zn ion (in words): HPLC-MS
# Protocol: (§1) Therefore, the measurements of Ca—Sr ionselectivity were carried out with an AGILENT 6140 Octapol MS (mass spectrometer) equipped with an AGILENT 1200 HPLC. The ionization was carried out by using an electron-spray (ESI, MM-FS) soft ionization equipment with positive detection. During the measurements different complex-forming compounds of the formulas (P-1), P-2), (P-3) prepared with the synthesizes shown above and decorporol of the formula (XI) were added to stock solutions, then the solutions were measured with mass spectrometry.
# (§2) The measuring of Ca—Sr ionselectivity was carried out with an AGILENT 6140 Octapol MS (mass spectrometer) equipped with an AGILENT 1200 HPLC. The ionization was carried out by using an electron-spray (ESI, MM-FS) soft ionization equipment with positive detection. The used field strength was 10000V, the spray temperature 220° C., Fragmentor: 70; Treshold: 500, stepsize 0.2 Da; Ionization Switch Delay: 0 ms; Polarity Switch Delay 300 ms; Gain: 1:0; Mass range: 100-1200 Da. Nitrogen gas was used. These parameters were obtained by optimization. The used HPLC column was a 30 mm long WATERS ACQUITY UPLC column with an inner diameter of 2.1 mm and filled with C18 packing of 1.8 um. The amounts of the injected samples were changed between 2-10 ul. The eluents used due to the appropriate ionization were as follows:
# (§3) Eluent A: 0.395 g of NH4HCO3 dissolved in 1 l water+50 ml MeCN.
# (§4) Solution A: 0.1 M Ca ion stock solution: 222.1 mg (2 mmol) of anhydrous CaCl2 are dissolved in 20 ml of distilled water.
# Solution D: 0.1 M Zn ion stock solution: 272.5 mg (2 mmol) of ZnCl2 are dissolved in 20 ml of distilled water.
# (§5) 100 μl of A stock solution and to 100 μl of I, II, III or IV solutions 100 μl of B-G solution are added according to the Table below and the amount of the thus obtained samples are completed to 1 ml, then injected into the HPLC.
# (§6) A minimal retention time of 0.75 minutes was registered in case of the tests with Decorporol. We registered the free complex-forming compound (M+H+DA), the calcium adduct (M−H^++38 Da) and the strontium complex (M−H^++86 Da) in every case. Due to the very similar chemical properties of the Ca ion and the strontium ion it is presumable that they behave similarly during ionization, therefore we have determined the selectivity compared to Ca ion by the ratio of the average mass spectrometry signals of Ca adducts to Sr adducts. In case of the measurements of the physiologically important and toxic metal ions the compound of formula (P-3) was used. The signal of the corresponding metal ion adduct was always well separated from the signal of the mother compound and from the signal of the Ca-adduct.
# [2] = as above; type: binding
# Protocol: as §1, §2, §3, §4
# Solution B: 0.1 M Sr ion stock solution: 533.5 mg (2 mmol) of SrCl2.6H2O are dissolved in 20 ml of distilled water.
# as §5, §6
# [3] = Decarboxylation observed during the HPLC-MS measurements; type: physicochemical
# Protocol: The decarboxylation, which is characteristic of decorporol, was shown also during the measurements.
# as §2, §6
# This process is well-known and leads to slow degradation of decorporol. The mono-decarboxylated and the double-decarboxylated derivatives are the main contaminants of decorporol and their solubility is very low in water, therefore beyond a certain concentration the complexes could precipitate.
# [4] = Measurement of metal selectivity by HPLC-MS (ESI), ratio of metal adduct to Ca adduct signals; type: binding; remark: listed apart in the source
# [5] = as above; type: binding; conditions: for binding of Cu ion (in words): HPLC-MS
# Protocol: as §1, §2, §3, §4
# Solution C: 0.1 M Cu ion stock solution: 500.0 mg (2 mmol) of CuSO4.5H2O are dissolved in 20 ml of distilled water.
# as §5, §6
# [6] = as above; type: binding; remark: listed apart in the source
# Protocol: as §1
# The measuring of Ca—Sr ionselectivity was carried out with an AGILENT 6140 Octapol MS (mass spectrometer) equipped with an AGILENT 1200 HPLC. The ionization was carried out by using an electron-spray (ESI, MM-FS) soft ionization equipment with positive detection. The used field strength was 10000V, the spray temperature 220° C., Fragmentor: 70; Treshold: 500, stepsize 0.2 Da; Ionization Switch Delay: 0 ms; Polarity Switch Delay 300 ms; Gain: 1:0; Mass range: 100-1200 Da. […]
# A minimal retention time of 0.75 minutes was registered in case of the tests with Decorporol. […] Due to the very similar chemical properties of the Ca ion and the strontium ion it is presumable that they behave similarly during ionization, therefore we have determined the selectivity compared to Ca ion by the ratio of the average mass spectrometry signals of Ca adducts to Sr adducts. […]
# [7] = as above; type: binding; conditions: for binding of Pb ion / palladium (in words): HPLC-MS; for M^2+/Ca^2+ rate / M^2+/Ca^2+ rate, peak of decarboxylated fragment (in brackets): M = Pd
# Protocol: as §1, §2, §3, §4
# Solution F: 0.1 M Pb ion stock solution: 217.0 mg […] of Pb(OOCCF3)2 are dissolved in 5 ml distilled water.
# as §5, §6
# [8] = as above; type: binding; conditions: for binding of Sn ion (in words): HPLC-MS; for M^2+/Ca^2+ rate: M = Sn
# Protocol: as §1, §2, §3, §4
# Solution E: 0.1 M Sn ion stock solution: 379.6 mg (2 mmol) of SnCl2 are dissolved in 20 ml of distillated water.
# as §5, §6
# [9] = Quantum chemical calculation of the Ca2+ ion changing process (Gaussian09, B3LYP/LANL2DZ); conditions: ratio of calculated RH values
# Protocol: Since there is no appropriate analytical method for the measurement of the complex-forming properties of these compounds with sufficient accuracy, we determined the complex-forming constants compared to the calcium ion complexes with high level quantum chemical calculations. The calculations were performed using Gaussian09 software on B3LYP/LANL2DZ theoretical level. In course of the calculations frequency calculations were also performed from which thermodynamic data were also determined.
# The ion binding capabilities to each of ions are compared to the calcium binding capabilities, which is shown by RH (relative complex-forming tendency).
# The thermodynamic data (ΔE, ΔH, ΔG) were calculated with mathematical equations from the values of E, H and G counted on quantum chemical basis: ΔE[complex-M]=E[complex-M]+E[CaCl2.6H2O]−{E[complex-Ca]+E[MCl2.6H2O]} ΔH[complex-M]=H[complex-M]+H[CaCl2.6H2O]−{H[complex-Ca]+H[MCl2.6H2O]} ΔG[complex-M]=G[complex-M]+G[CaCl2.6H2O]−{G[complex-Ca]+G[MCl2.6H2O]}
# The relative complex-forming constant (RG) compared to the Ca^2+ ion can be calculated with the following equation: […]
# Since the quotient formation expectedly causes a loss of entropy coefficients, the following equation was used which is more practical due to the fluctuation of the calculated entropy coefficient: […]
# [10] = mice, compound added intravenously, calcium remained; cited from earlier work
# [11] = during HPLC-MS measurements with metal ions
Compound,binding of Zn ion (in words) [1],M^2+/Ca^2+ rate ([1]; M = Zn),MS peak of the free complex-forming compound compared with the peak of its Sr complex [2],binding of strontium ion (in words) [2],"decarboxylation [3, 11]",Sr^2+/Ca^2+ rate [4],binding of Cu ion (in words) [5],M^2+/Ca^2+ rate ([5]; M = Cu),binding of Pb ion / palladium (in words) [7],M^2+/Ca^2+ rate [7],binding of Sn ion (in words) [8],M^2+/Ca^2+ rate [8],strontium binding affinity compared to the compound of formula (XI) [9],further results
"O=C(O)CCC(NC(=O)CN1CCOCCOCCN(CC(=O)NC(CCC(=O)O)C(=O)O)CCOCCOCC1)C(=O)O (stereo not drawn) [(P-3), 2-(2-{16-[(1,3-Dicarboxy-propylcarbamoyl)-methyl]-1,4,10,13-tetraoxa-7,16-diaza-cyclooctadec-7-yl}-acetylamino)-pentanedioic acid]",does not bind,ca. 0,significantly lower; also recorded: considerably smaller,strongest; also recorded: stronger than Ca ion,does not decarboxylate,1.5,a little stronger than Ca ion; also recorded: slightly binds,1.1,very strongly,29,very strongly,100,–,binding of Fe ion (in words) ([6]; HPLC-MS): does not bind; M^2+/Ca^2+ rate ([6]; M = Fe): ca. 0
"2-(2-{16-[(1,2-Dicarboxy-ethylcarbamoil)-methyl]-1,4,10,13-tetraoxa-7,16-diaza-cyclooctadec-7-yl}-acetylamino)-succinic acid [(P-2)]",–,–,significantly lower; also recorded: considerably smaller,stronger than Ca ion,–,1.4,–,–,–,–,–,–,approximately 4 fold,–
"O=C(CN1CCOCCOCCN(CC(=O)NC(C(=O)O)C(=O)O)CCOCCOCC1)NC(C(=O)O)C(=O)O [(P-1), 2-(2-{16-[(Dicarboxymethyl-carbamoyl)-methyl]-1,4,10,13-tetraoxa-7,16-diaza-cyclooctadec-7-yl}-acetiyamino)-malonic acid]",–,–,significantly lower; also recorded: considerably smaller,–,–,1.25,–,–,–,–,–,–,more than 4 fold,–
"O=C(O)C(C(=O)O)N1CCOCCOCCN(C(C(=O)O)C(=O)O)CCOCCOCC1 [Decorporol, (7,16-bis-malonate)-1,4,10,13-tetraoxa-7,16-diazacyclooctadecane-bis-malonic acid]",stronger than Ca,8,–,–,significant decarboxylation,1.2,a bit stronger than the compound of the formula of (P-3),1.2,significantly less,20,significantly less,22,–,"binding of Zn ion (in words) ([1]; listed as decorporol): Good binding; also recorded: stronger than Ca ions; M^2+/Ca^2+ rate, peak of decarboxylated fragment (in brackets) ([1]; M = Zn): 4; MS peak of the free complex-forming compound compared with the peak of its Sr complex ([2]; listed as decorporol): worse; also recorded: lower; decarboxylation ([3]; in case of Pb ion): very strong decarboxylation process; M^2+/Ca^2+ rate, peak of decarboxylated fragment (in brackets) ([5]; M = Cu): 1.5; removal of strontium from the body [10]: removed selectively; M^2+/Ca^2+ rate, peak of decarboxylated fragment (in brackets) ([7]; first bracketed peak): 29; M^2+/Ca^2+ rate, peak of decarboxylated fragment (in brackets) ([7]; second bracketed peak): 40"
